In patent US9603896B2, “Peptide compounds and methods of production and use thereof” (priority 2012, dated 2017):
Square brackets hold non-standard residues; d marks the D form. Peptide text beside a SMILES is read from it. AEEA = NCCOCCOCC(=O)O

Columns and labels:
[1] = test system: E. coli ATCC® strain 25922™; type: cell-based, Escherichia coli; parameters: Log reduction of E. coli: dose or concentration left out as unconfirmed; conditions: 25; starting inoculum 1×10^6 CFU/ml; 60 to 180 minute incubation
Outline: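 Bactericidal assay: E. coli ATCC 25922 at a starting inoculum of 1×10^6 CFU/ml exposed to peptide for 60 to 180 min. Surviving CFU then counted, with activity expressed as log reduction in CFU/ml.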

[2] = LPS binding, Limulus Amebocyte Lysate (LAL) assay; parameters: species or system Pseudomonas
Description: (§1) The well-characterized response of RAW264.7 macrophage cells was used to produce tumor necrosis-factor-alpha (TNF-α) in response to LPS to determine whether the peptides could dampen the release of this cytokine. […] Importantly, pre-treatment (3 hours prior to LPS addition) as well as post-treatment of the RAW264.7 cells (3 hours post LPS addition) with peptide dampened the cytokine release. […] The finding that the novel peptides bind and neutralize the effect of Pseudomonas LPS is of critical importance since this ensures that the novel therapeutic peptide compounds described herein will not only kill the bacteria, but will also neutralize the LPS endotoxin released by the bacteria which plays such an important role in the rapid progression of sepsis.
(§2) BCC01-5RMP (SEQ ID NO:21), BCC02-5RMP (SEQ ID NO:22), and BCC03-5RMP (SEQ ID NO:23) were tested for their ability to bind lipopolysaccharide (LPS) using the limulus amebocyte lysate method (LAL). […] There was no statistical difference in their ability to bind LPS using the LAL technique. The ability of the peptides to neutralize LPS was assessed by determining their ability to attenuate the release of tumor necrosis factor-alpha (TNF-α) from LPS-stimulated RAW264.7 cells (a mouse macrophage cell line). […] No significant differences were observed between the three peptides to neutralize LPS as measured by cytokine release.

[3] = test system: TNF-α release from LPS-stimulated RAW264.7 cells; assay: LPS neutralization: TNF-α release from LPS-stimulated RAW264.7 cells; type: cell-based, mouse; conditions: Pseudomonas LPS
Description: as §1, §2

[4] = test system: Pseudomonas aeruginosa ATCC® 27853™; type: cell-based; parameters: Log reduction of Pseudomonas: dose or concentration left out as unconfirmed; conditions: starting inoculum 1×10^6 CFU/ml; 60 to 180 minute incubation
[5] = test system: P. aeruginosa (ATCC® 27853™); assay: Pseudomonas keratitis model in the mouse eye; type: in vivo; conditions: C57/BL mice, topical, concentrations between 0.25 and 0.75 mg/ml
Description: A circular wound was created on the mouse cornea by removing the epithelium and infected with 10^5 colony forming units (CFU) of P. aeruginosa (ATCC® 27853™ (American Type Culture Collection, Manassas, Va.)). Infected wounds were treated with saline (0.9% sodium chloride, vehicle control) or saline containing indicated concentrations of peptide every 15 minutes for 2 hours, then every 30 minutes for 3 hours on the first day. Infected wounds were treated twice on the second day and once on the third day. Mice were killed at 48 hours post-infection, and CFU/eye were quantified. The means were plotted and are representative of 5 to 9 mice per group. Mann Whitney test was performed for each group as compared to the saline control group. *P=0.014.
A circular wound (2 mm) was created on the mouse cornea by removing the epithelium and infecting the wound with 10^5 CFU of P. aeruginosa (ATCC® 27853™ (American Type Culture Collection, Manassas, Va.)). Infected wounds were treated with saline or saline containing indicated concentrations of peptide every 15 minutes for 2 hours, then every 30 minutes for 3 hours on the first day. Infected wounds were treated twice on the second day and once on the third day. Mice were killed at 48 hours post-infection, and the colony forming units per eye (CFU/eye) were quantified. The means are plotted and are representative of 5 to 9 mice per group. Mann Whitney test was performed for each group as compared to the saline control group.
For FIGS. 15-17, in vivo bactericidal activity of the peptides was also investigated using the standard Pseudomonas keratitis model in the mouse eye (FIGS. 15-17). Peptides 120-146QR-5RMP (SEQ ID NO:32), 120-146WH (SEQ ID NO:31), and 120-146WR (SEQ ID NO: 30) were applied topically at doses of 2, 5, 10, and 20 mg/ml to the wounded cornea that had been infected with 10^5 CFU of Pseudomonas aeruginosa. The efficacies of the peptides were compared to treatment with the vehicle control. Mice were euthanized at 48 hours post infection, and the CFU/eye were quantified.

[6] = test system: Pseudomonas clinical isolate B64; assay: BIOSCREEN C™ growth assay, antibiotic and peptide combinations; type: cell-based, Pseudomonas aeruginosa
Description: Cefotaxime (Cefo) and peptide combinations included a constant amount of Cefotaxime (2.81 μg/ml) with suboptimal amounts of peptide (0, 0.34, 1.01, and 3.04 μg/ml).
The peptide and antibiotics were set up in the wells of the microtiter plate at starting ratios of MIC equivalents of antibiotic:peptide at 3:1, 1:1, and 1:3. They were serially diluted to concentrations well below suboptimal/sublethal levels of the antibiotic and peptide. The organism was added (1×10^5 CFU/well), the BIOSCREEN C™ assay (Growth Systems USA, Piscataway, N.J.) was performed, and data was collected over 24 hours.

CC[C@H](C)[C@H](NC(=O)[C@H](CC(C)C)NC(=O)[C@H](C)NC(=O)CNC(=O)CNC(=O)[C@H](CO)NC(=O)[C@H](Cc1ccccc1)NC(=O)[C@H](Cc1c[nH]cn1)NC(=O)[C@H](CCCNC(=N)N)NC(=O)CNC(=O)[C@H](CCC(N)=O)NC(=O)[C@H](CC(N)=O)NC(=O)[C@H](CCCNC(=N)N)NC(=O)[C@H](CCCNC(=N)N)NC(=O)[C@H](CCCNC(=N)N)NC(=O)[C@H](CCCNC(=N)N)NC(=O)COCCOCCNC(=O)COCCOCCN)C(=O)N[C@@H](Cc1c[nH]cn1)C(=O)N[C@@H](C)C(=O)N[C@@H](CCCNC(=N)N)C(=O)N[C@@H](Cc1ccccc1)C(=O)N[C@H](C(=O)N[C@@H](CCSC)C(=O)N[C@H](C(=O)N[C@@H](C)C(=O)N[C@@H](C)C(=O)N[C@@H](CO)C(=O)N[C@@H](CS)C(=O)N[C@@H](Cc1ccccc1)C(=O)N[C@@H](CCC(N)=O)C(=O)N[C@@H](CCCNC(=N)N)C(=O)O)[C@@H](C)O)C(C)C [BCC02-5RMP] (H-[AEEA][AEEA]RRRRNQGRHFSGGALIHARFVMTAASCFQR-OH)
Log reduction of E. coli [1]: 4 | binding of Pseudomonas LPS [2]: bound Pseudomonas LPS | neutralization of LPS: release of TNF-α [3]: attenuate the release of TNF-α | Log reduction of Pseudomonas [4]: 4 | bacteria in the eye (CFU/eye) at 48 hours post-infection [5]: effectively killed all bacteria and cured the infection | sensitivity of the bacterium to Cefotaxime on addition of peptide ([6]; 3.04 μg/ml of peptide plus Cefotaxime 2.81 μg/ml, P=0.0143): now sensitive | effect of peptide on the killing effect of Cefotaxime ([6]; 0.34 and 1.0 μg/ml of peptide plus Cefotaxime 2.81 μg/ml): no statistical effect
